Laboratory results taken from patent US20130079526A1, “Synthesis of Chirally Purified Substituted Benzothiazole Diamines” (priority 2010, published 2013).

Experiments:
rodents [1] = tested on: rodents
rodents [2] = details: single oral dose, and above; cited from earlier work
dogs = details: single oral dose, and above; cited from earlier work
monkeys = details: single oral dose; cited from earlier work
human subjects = details: cited from earlier work
humans = details: dose as low as; cited from earlier work

CCCN[C@H]1CCc2nc(N)sc2C1 [pramipexole, (6S)-4,5,6,7-tetrahydro-N6-propyl-2,6-benzothiazole-diamine]
equivalent human dose of the rodent lethal dose (rodents [1]; human equivalent): 7 to 12 mg/kg | equivalent human dose of the rodent lethal dose for a 70 kg individual (rodents [1]; rodents, in vivo): 500 to 850 mg | dose at which death occurred (rodents [2]): 70 to 105 mg/kg | dose at which vomiting occurred (dogs): ≥ 0.0007 mg/kg | dose at which major excitation was displayed (monkeys): 3.5 mg/kg | initial single dose not tolerated (human subjects): greater than 0.20 mg | dose shown to cause somnolence (humans): 1.5 mg
